Test results: publication PMC3699648, “Replacement of the Human Topoisomerase Linker Domain with the Plasmodial Counterpart Renders the Enzyme Camptothecin Resistant” (PLoS ONE, 2013)

Target: T1, hTop1 (Homo sapiens, UniProt P11387)
T1 construct: gene TOP1; expressed in S. cerevisiae top1 null EKY3, anti-FLAG purified
T1 sequence (P11387 1-765): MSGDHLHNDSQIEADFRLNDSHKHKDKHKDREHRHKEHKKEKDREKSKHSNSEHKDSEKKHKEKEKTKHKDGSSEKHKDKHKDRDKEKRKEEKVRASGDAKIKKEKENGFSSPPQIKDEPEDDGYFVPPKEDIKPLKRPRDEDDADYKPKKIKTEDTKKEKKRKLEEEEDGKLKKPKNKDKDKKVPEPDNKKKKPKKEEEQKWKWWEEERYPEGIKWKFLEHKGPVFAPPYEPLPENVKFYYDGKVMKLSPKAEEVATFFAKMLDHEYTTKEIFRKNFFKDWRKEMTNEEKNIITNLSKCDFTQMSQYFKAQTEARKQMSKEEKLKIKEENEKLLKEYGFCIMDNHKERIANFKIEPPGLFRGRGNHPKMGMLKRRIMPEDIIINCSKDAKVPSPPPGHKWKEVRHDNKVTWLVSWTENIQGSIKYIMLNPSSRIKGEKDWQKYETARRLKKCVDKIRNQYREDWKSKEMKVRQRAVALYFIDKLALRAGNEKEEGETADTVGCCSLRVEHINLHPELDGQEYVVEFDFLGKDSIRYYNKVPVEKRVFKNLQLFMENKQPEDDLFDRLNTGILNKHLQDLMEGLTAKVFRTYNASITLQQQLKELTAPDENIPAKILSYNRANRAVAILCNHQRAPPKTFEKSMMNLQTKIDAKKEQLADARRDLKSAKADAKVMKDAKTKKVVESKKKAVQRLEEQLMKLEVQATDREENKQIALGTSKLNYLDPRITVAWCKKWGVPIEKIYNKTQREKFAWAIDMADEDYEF
Assay: stabilisation of DNA cleavage complex (CL25/CP25, gel); also relaxation and religation assays
Type: biochemical
Conditions: 100 µM CPT, 20 nM duplex CL25/CP25, 1 min, 25 °C, pH 7.5, 5 mM MgCl2, 5 mM CaCl2, 150 mM KCl; binds covalent enzyme-DNA complex

Structure (SMILES): CC[C@@]1(O)C(=O)OCc2c1cc1n(c2=O)Cc2cc3ccccc3nc2-1 [CPT, camptothecin]
- % cleavage complex at 100 μM: In presence of CPT the hTop1 cleavage is strongly increased
